Measurements reported in the OligoGym collection.
Values joined by “and” are separate entries in the source; they are usually repeats but may differ in a detail not shown here. Equal entries are not always repeated. After the bases stand the sugars from the 5' end (letter, count) and the backbone: PS all phosphorothioate, else s phosphorothioate and o phosphodiester by linkage. Methylation of C is not given here. e = 2'-O-(2-methoxyethyl) (MOE); k = constrained ethyl (cEt); d = 2'-deoxy (DNA)

Key:
SOD1 = settings: ASO
MALAT1 = settings: ASO, A431, 0.005 µM

Sequence	target mRNA inhibition (MALAT1)	also measured
TTTTTATTCACAGGCTT (sugars e3 k2 d7 k2 e3, PS)	–	target mRNA inhibition (SOD1; HepG2, 3 µM): 31%
ACTGGTACAGCCTGCTGTAT (sugars e5 d10 e5, PS)	–	target mRNA inhibition (SOD1; HepG2, 5 µM): 22% and 28%
GATACATTTCTACAGCT (sugars e3 k2 d7 k2 e3, PS)	–	target mRNA inhibition (SOD1; HepG2, 3 µM): 40%
AGTGCCATACAGGGTTT (sugars e2 k2 d8 k2 e3, PS)	–	target mRNA inhibition (SOD1; HepG2, 5 µM): 20%
CAGTGTTTAATGTTTATC (sugars e5 d8 e5, linkages s1 o3 s9 o2 s2)	–	target mRNA inhibition (SOD1; A431, 0.12 µM): 0%; target mRNA inhibition (SOD1; A431, 0.6 µM): 8%; target mRNA inhibition (SOD1; A431, 3 µM): 39%; target mRNA inhibition (SOD1; A431, 15 µM): 52%; target mRNA inhibition (SOD1; HepG2, 0.222 µM): 21%; target mRNA inhibition (SOD1; HepG2, 0.667 µM): 47%; target mRNA inhibition (SOD1; HepG2, 2 µM): 64%; target mRNA inhibition (SOD1; HepG2, 6 µM): 84%
GCTTGAATGACAAAGAA (sugars e2 k2 d8 k2 e3, PS)	–	target mRNA inhibition (SOD1; HepG2, 5 µM): 24%
CAAAGAAATTCTGACAAGTT (sugars e5 d10 e5, PS)	–	target mRNA inhibition (SOD1; HepG2, 5 µM): 7%
CAGTGTTTAATGTTTA (sugars ekddddddddekekee, linkages s1 o1 s8 o3 s2)	–	target mRNA inhibition (SOD1; A431, 0.12 µM): 8%; target mRNA inhibition (SOD1; A431, 0.6 µM): 26%; target mRNA inhibition (SOD1; A431, 3 µM): 57%; target mRNA inhibition (SOD1; A431, 15 µM): 76%; target mRNA inhibition (SOD1; HepG2, 0.222 µM): 54%; target mRNA inhibition (SOD1; HepG2, 0.667 µM): 79%; target mRNA inhibition (SOD1; HepG2, 2 µM): 84%; target mRNA inhibition (SOD1; HepG2, 6 µM): 88%
CCAAGTGATCATAAATC (sugars e2 k2 d8 k2 e3, PS)	–	target mRNA inhibition (SOD1; HepG2, 5 µM): 40%
ACTGGTCCATTACTTTC (sugars e3 k2 d7 k2 e3, PS)	–	target mRNA inhibition (SOD1; HepG2, 3 µM): 14%
GTAGTAAGAATCTCAG (sugars k3 d10 k3, PS)	80% and 71%	–
CCACACACTACCATAT (sugars k3 d10 k3, PS)	17%	–
CAATATCTTAGTAACC (sugars k3 d10 k3, PS)	29%	–
GCCCACTCTGATCTGC (sugars k3 d10 k3, PS)	-4%	–
CCCGCCTCAGTTACAC (sugars k3 d10 k3, PS)	4%	–
GCCTGGTTAGGTATGA (sugars k3 d10 k3, PS)	21%	–
TTATATTAGGTTCTCG (sugars k3 d10 k3, PS)	-6%	–
GTTCAACCCACCAAAG (sugars k3 d10 k3, PS)	36%	–
TTATCCCTAACATGCA (sugars k3 d10 k3, PS)	8%	–
CACTACCATATCCAAA (sugars k3 d10 k3, PS)	23%	–
GCATGTAAGAATTAAG (sugars k3 d10 k3, PS)	28%	–
TGTCAATTAATGCTAG (sugars k3 d10 k3, PS)	42%	–
GACTGCTTAAAACTGC (sugars k3 d10 k3, PS)	36%	–
CCAAATTGCACTCGCT (sugars k3 d10 k3, PS)	36%	–
AATTTCCTTAGTTGGC (sugars k3 d10 k3, PS)	68% and 93%	–
CTTATGGAACTTGAAT (sugars k3 d10 k3, PS)	-5%	–
TGGACATTGCCTCTTC (sugars k3 d10 k3, PS)	29%	–

Sequence	target mRNA inhibition (MALAT1)	also measured
GCAGTTATATTAGGTT (sugars k3 d10 k3, PS)	15%	–
CTATATTTAAGGCCTT (sugars k3 d10 k3, PS)	26%	–
AAGTTTTCAGCAGTAG (sugars k3 d10 k3, PS)	8%	–
AGAACAACTCGCATCA (sugars k3 d10 k3, PS)	12%	–
AGACCCCTGACTTTCT (sugars k3 d10 k3, PS)	22%	–
GGCAAAATGGCGGACT (sugars k3 d10 k3, PS)	-14%	–
CGCCAACACAGTTTGC (sugars k3 d10 k3, PS)	12%	–
ACTTCCGTTACGAAAG (sugars k3 d10 k3, PS)	1%	–
ATCATAATCTCCCACC (sugars k3 d10 k3, PS)	20%	–
CATCAGAAGAAATCCC (sugars k3 d10 k3, PS)	17%	–
GGCCAGCCTATAAGGA (sugars k3 d10 k3, PS)	6%	–
AGACCTCGACACCATC (sugars k3 d10 k3, PS)	46%	–
TGAATTACTTCCGTTA (sugars k3 d10 k3, PS)	36%	–
TCCTTCTATAGTCTGA (sugars k3 d10 k3, PS)	14%	–
ACCGCACAGCTCGGGC (sugars k3 d10 k3, PS)	5%	–
ATTATACATCAAGGAT (sugars k3 d10 k3, PS)	17%	–
TTCCTAGCTTCACCAC (sugars k3 d10 k3, PS)	36%	–
CCAATGGACATCTCTT (sugars k3 d10 k3, PS)	40%	–
CTGTTTAAGTCACCTT (sugars k3 d10 k3, PS)	76% and 61%	–
CCACAGGAACAAGTCC (sugars k3 d10 k3, PS)	-5%	–
TTCCGCTAAGATGCTA (sugars k3 d10 k3, PS)	9%	–
GCAATACTGCAGATGC (sugars k3 d10 k3, PS)	-19%	–
CATATTTAACTTCCCC (sugars k3 d10 k3, PS)	25%	–
CTAAAGGCTTCAGTCC (sugars k3 d10 k3, PS)	23%	–
TACGAAACTCCCCCAT (sugars k3 d10 k3, PS)	6%	–
GTTCGAGAAATCGGAG (sugars k3 d10 k3, PS)	15%	–
